Values quoted from earlier work as cited in patent US20040128703A1, “Methods and compositions for the generation of humanized mice” (priority 2002, published 2004).
Read-outs that look alike come from different tables or passages of the source.

Assays:
[1] = test system: CYP3A expression in rat hepatocytes
human PXR [2] = biological target: T1, human PXR (Homo sapiens, UniProt O75469); details: human PXR transfected into rat hepatocytes
T1 sequence (O75469 1-434): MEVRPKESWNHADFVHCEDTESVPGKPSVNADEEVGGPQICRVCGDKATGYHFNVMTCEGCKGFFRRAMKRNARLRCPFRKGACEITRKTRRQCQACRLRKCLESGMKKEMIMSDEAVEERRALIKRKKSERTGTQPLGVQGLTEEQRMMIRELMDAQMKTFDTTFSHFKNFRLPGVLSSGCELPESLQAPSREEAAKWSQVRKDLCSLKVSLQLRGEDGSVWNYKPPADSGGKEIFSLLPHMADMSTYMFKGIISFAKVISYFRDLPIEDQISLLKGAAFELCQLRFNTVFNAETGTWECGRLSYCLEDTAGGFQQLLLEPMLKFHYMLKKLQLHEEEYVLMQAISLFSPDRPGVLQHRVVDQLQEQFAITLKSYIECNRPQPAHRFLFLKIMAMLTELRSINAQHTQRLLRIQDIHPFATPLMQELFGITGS

human PXR [3] = biological target: T1, human PXR; details: transgenic mice, native PXR partially deleted, human PXR gene targeted to the liver

| SMILES | CYP3A4 expression in human liver (CYP3A4 expression) | effect on CYP3A expression in rat hepatocytes [1] | CYP3A expression in rat hepatocytes transfected with human PXR (human PXR [2]) | P-glycoprotein induction (P-glycoprotein) | also measured |
| --- | --- | --- | --- | --- | --- |
| CCC1(c2ccccc2)C(=O)NC(=O)NC1=O [phenobarbital] | stimulate CYP3A4 expression | no effect | able to stimulate CYP3A expression |  |  |
| CC(=O)O[C@H]1C(=O)[C@@]2(C)[C@H]([C@H](OC(=O)c3ccccc3)[C@]3(O)C[C@H](OC(=O)[C@H](O)[C@@H](NC(=O)c4ccccc4)c4ccccc4)C(C)=C1C3(C)C)[C@]1(OC(C)=O)CO[C@@H]1C[C@@H]2O [Taxol] |  |  |  | induced |  |
| O=C(O)c1cn(C2CC2)c2cc(N3CCNCC3)c(F)cc2c1=O [Ciprofloxacin] |  |  |  |  | susceptibility of bacteria (gram-negative bacilli; 1994, US): 86%; susceptibility of bacteria (gram-negative bacilli; 2000, US): 76% |
| Clc1ccccc1C(c1ccccc1)(c1ccccc1)n1ccnc1 [clotrimazole] | stimulate CYP3A4 expression | no effect | able to stimulate CYP3A expression |  | CYP3A expression in the mouse (human PXR [3]): induced CYP3A expression |
| CCOP(=O)(OCC)C(=Cc1cc(C(C)(C)C)c(O)c(C(C)(C)C)c1)P(=O)(OCC)OCC [SR12813] |  |  |  | induced |  |
